Tests used:
HeLa [1] = assay: Antiproliferative activity against human HeLa cells assessed as reduction in cell growth at 2 uM incubated for 72 hrs by CCK-8 assay relative to control; format: functional
A549 [2] = assay: Antiproliferative activity against human A549 cells assessed as reduction in cell growth at 2 uM incubated for 72 hrs by CCK-8 assay relative to control; format: functional; details: A549, 72 h
SMMC-7721 [3] = assay: Induction of apoptosis in human SMMC7721 cells assessed as late apoptotic cells at 1 uM incubated for 48 hrs by Annexin-V-FITC/propidium iodide staining based flow cytometry (Rvb=1.73%); format: functional
A-375 [4] = assay: Antiproliferative activity against human A375 cells assessed as reduction in cell growth at 8 uM incubated for 72 hrs by CCK-8 assay relative to control; format: functional; details: A-375, 72 h
SMMC-7721 [5] = assay: Induction of apoptosis in human SMMC7721 cells assessed as necrotic cells at 4 uM incubated for 48 hrs by Annexin-V-FITC/propidium iodide staining based flow cytometry (Rvb=1.88%); format: functional
HCT-116 [6] = assay: Antiproliferative activity against human HCT116 cells assessed as reduction in cell growth at 8 uM incubated for 72 hrs by CCK-8 assay relative to control; format: functional; details: HCT-116, 72 h
NIH3T3 = assay: Cytotoxicity against mouse NIH/3T3 cells assessed as reduction in cell viability after 48 hrs by CCK8 assay; format: cell-based; details: NIH3T3, 48 h
SMMC-7721 [7] = assay: Induction of apoptosis in human SMMC7721 cells assessed as late apoptotic cells at 4 uM incubated for 48 hrs by Annexin-V-FITC/propidium iodide staining based flow cytometry (Rvb=1.73%); format: functional
SMMC-7721 [8] = assay: Cell cycle arrest in human SMMC7721 cells assessed as accumulation at G2/M phase at 1 uM incubated for 48 hrs by propidium iodide staining based flow cytometry (Rvb=16.17%); format: functional
SMMC-7721 [9] = assay: Cell cycle arrest in human SMMC7721 cells assessed as accumulation at G0/G1 phase at 4 uM incubated for 48 hrs by propidium iodide staining based flow cytometry (Rvb=77%); format: functional
SMMC-7721 [10] = assay: Cell cycle arrest in human SMMC7721 cells assessed as accumulation at G2/M phase at 0.25 uM incubated for 48 hrs by propidium iodide staining based flow cytometry (Rvb=16.17%); format: functional
A-375 [11] = assay: Antiproliferative activity against human A375 cells assessed as reduction in cell growth at 2 uM incubated for 72 hrs by CCK-8 assay relative to control; format: functional; details: A-375, 72 h
HeLa [12] = assay: Antiproliferative activity against human HeLa cells assessed as reduction in cell growth incubated for 72 hrs by CCK-8 assay; format: functional, cell-based
SMMC-7721 [13] = assay: Cell cycle arrest in human SMMC7721 cells assessed as accumulation at S phase at 4 uM incubated for 48 hrs by propidium iodide staining based flow cytometry (Rvb=6.83%); format: functional
A549 [14] = assay: Antitumor activity against human A549 cells xenografted in BALB/C mouse assessed as tumor growth inhibition at 25 mg/kg, ip bid for 21 days measured at 3 days interval during compound dosing relative to control; format: functional; details: read-out: TGI
SMMC-7721 [15] = assay: Induction of apoptosis in human SMMC7721 cells assessed as necrotic cells at 1 uM incubated for 48 hrs by Annexin-V-FITC/propidium iodide staining based flow cytometry (Rvb=1.88%); format: functional
SMMC-7721 [16] = assay: Induction of apoptosis in human SMMC7721 cells assessed as viable cells at 1 uM incubated for 48 hrs by Annexin-V-FITC/propidium iodide staining based flow cytometry (Rvb=93.5%); format: functional; details: SMMC-7721, 48 h, read-out: Activity
SMMC-7721 [17] = assay: Cell cycle arrest in human SMMC7721 cells assessed as accumulation at G0/G1 phase at 1 uM incubated for 48 hrs by propidium iodide staining based flow cytometry (Rvb=77%); format: functional
SMMC-7721 [18] = assay: Cell cycle arrest in human SMMC7721 cells assessed as accumulation at G0/G1 phase at 0.25 uM incubated for 48 hrs by propidium iodide staining based flow cytometry (Rvb=77%); format: functional
SMMC-7721 [19] = assay: Antiproliferative activity against human SMMC7721 cells assessed as reduction in cell growth at 2 uM incubated for 72 hrs by CCK-8 assay relative to control; format: functional; details: SMMC-7721, 72 h
SMMC-7721 [20] = assay: Cell cycle arrest in human SMMC7721 cells assessed as accumulation at G2/M phase at 4 uM incubated for 48 hrs by propidium iodide staining based flow cytometry (Rvb=16.17%); format: functional
SMMC-7721 [21] = assay: Induction of apoptosis in human SMMC7721 cells assessed as necrotic cells at 0.25 uM incubated for 48 hrs by Annexin-V-FITC/propidium iodide staining based flow cytometry (Rvb=1.88%); format: functional
HCT-116 [22] = assay: Antiproliferative activity against human HCT116 cells assessed as reduction in cell growth at 2 uM incubated for 72 hrs by CCK-8 assay relative to control; format: functional; details: HCT-116, 72 h
SMMC-7721 [23] = assay: Antiproliferative activity against human SMMC7721 cells assessed as reduction in cell growth incubated for 72 hrs by CCK-8 assay; format: functional, cell-based; details: SMMC-7721, 72 h
SMMC-7721 [24] = assay: Induction of apoptosis in human SMMC7721 cells assessed as late apoptotic cells at 0.25 uM incubated for 48 hrs by Annexin-V-FITC/propidium iodide staining based flow cytometry (Rvb=1.73%); format: functional
SMMC-7721 [25] = assay: Induction of apoptosis in human SMMC7721 cells assessed as early apoptotic cells at 4 uM incubated for 48 hrs by Annexin-V-FITC/propidium iodide staining based flow cytometry (Rvb=2.88%); format: functional
HeLa [26] = assay: Antiproliferative activity against human HeLa cells assessed as reduction in cell growth at 8 uM incubated for 72 hrs by CCK-8 assay relative to control; format: functional
SMMC-7721 [27] = assay: Antiproliferative activity against human SMMC7721 cells assessed as reduction in cell growth at 8 uM incubated for 72 hrs by CCK-8 assay relative to control; format: functional; details: SMMC-7721, 72 h
SMMC-7721 [28] = assay: Induction of apoptosis in human SMMC7721 cells assessed as viable cells at 4 uM incubated for 48 hrs by Annexin-V-FITC/propidium iodide staining based flow cytometry (Rvb=93.5%); format: functional; details: SMMC-7721, 48 h, read-out: Activity
SMMC-7721 [29] = assay: Induction of apoptosis in human SMMC7721 cells assessed as viable cells at 0.25 uM incubated for 48 hrs by Annexin-V-FITC/propidium iodide staining based flow cytometry (Rvb=93.5%); format: functional; details: SMMC-7721, 48 h, read-out: Activity
SMMC-7721 [30] = assay: Cell cycle arrest in human SMMC7721 cells assessed as accumulation at S phase at 1 uM incubated for 48 hrs by propidium iodide staining based flow cytometry (Rvb=6.83%); format: functional
SMMC-7721 [31] = assay: Induction of apoptosis in human SMMC7721 cells assessed as early apoptotic cells at 1 uM incubated for 48 hrs by Annexin-V-FITC/propidium iodide staining based flow cytometry (Rvb=2.88%); format: functional
A549 [32] = assay: Antiproliferative activity against human A549 cells assessed as reduction in cell growth at 8 uM incubated for 72 hrs by CCK-8 assay relative to control; format: functional; details: A549, 72 h
SMMC-7721 [33] = assay: Cell cycle arrest in human SMMC7721 cells assessed as accumulation at S phase at 0.25 uM incubated for 48 hrs by propidium iodide staining based flow cytometry (Rvb=6.83%); format: functional
SMMC-7721 [34] = assay: Induction of apoptosis in human SMMC7721 cells assessed as early apoptotic cells at 0.25 uM incubated for 48 hrs by Annexin-V-FITC/propidium iodide staining based flow cytometry (Rvb=2.88%); format: functional
A-375 [35] = assay: Antiproliferative activity against human A375 cells assessed as reduction in cell growth incubated for 72 hrs by CCK-8 assay; format: functional, cell-based; details: A-375, 72 h
A549 [36] = assay: Antiproliferative activity against human A549 cells assessed as reduction in cell growth incubated for 72 hrs by CCK-8 assay; format: functional, cell-based; details: A549, 72 h
HCT-116 [37] = assay: Antiproliferative activity against human HCT116 cells assessed as reduction in cell growth incubated for 72 hrs by CCK-8 assay; format: functional, cell-based; details: HCT-116, 72 h
Histone deacetylase 2 = Histone deacetylase 2 (Homo sapiens, UniProt Q92769); assay: Inhibition of human recombinant His-tagged HDAC2 ([…]) expressed in baculovirus infected insect cells using FLUOR DE LYS Green as substrate preincubated for 10 mins followed by substrate addition and measured after 30 mins by fluorescence method
Histone deacetylase 2, sequence (Q92769 whole entry): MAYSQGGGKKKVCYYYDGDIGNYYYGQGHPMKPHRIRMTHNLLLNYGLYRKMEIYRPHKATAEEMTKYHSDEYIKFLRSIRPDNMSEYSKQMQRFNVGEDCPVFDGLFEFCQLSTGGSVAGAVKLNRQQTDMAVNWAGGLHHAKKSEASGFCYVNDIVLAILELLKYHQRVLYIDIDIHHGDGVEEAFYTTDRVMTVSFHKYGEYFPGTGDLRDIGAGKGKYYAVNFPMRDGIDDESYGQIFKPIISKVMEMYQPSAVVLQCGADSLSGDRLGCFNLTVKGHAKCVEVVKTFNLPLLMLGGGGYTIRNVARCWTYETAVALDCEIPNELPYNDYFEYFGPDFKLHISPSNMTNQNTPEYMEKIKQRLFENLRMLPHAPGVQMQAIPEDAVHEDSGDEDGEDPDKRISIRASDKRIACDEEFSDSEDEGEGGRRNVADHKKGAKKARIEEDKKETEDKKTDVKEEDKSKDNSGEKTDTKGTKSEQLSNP

SMILES | inhibition at 2 µM (HeLa [1]) | inhibition at 2 µM (A549 [2]) | Activity (SMMC-7721 [3]) | inhibition at 8 µM (A-375 [4]) | Activity (SMMC-7721 [5]) | inhibition at 8 µM (HCT-116 [6]) | IC50 (NIH3T3) | Activity (SMMC-7721 [7]) | Activity (SMMC-7721 [8]) | Activity (SMMC-7721 [9]) | Activity (SMMC-7721 [10]) | inhibition at 2 µM (A-375 [11]) | IC50 (HeLa [12]) | Activity (SMMC-7721 [13]) | Activity (SMMC-7721 [15]) | inhibition at 2 µM (SMMC-7721 [19]) | inhibition at 2 µM (HCT-116 [22]) | inhibition at 8 µM (HeLa [26]) | inhibition at 8 µM (SMMC-7721 [27]) | inhibition at 8 µM (A549 [32]) | other results
CC(=O)Nc1ccc(C(=O)Nc2ccccc2N)cc1 [TACEDINALINE] | 13.4% | 23.5% | 6.72% | 33.5% | 4.85% | 44% | 9.05 µM | 19.3% | 6.73% | 70.12% | 7.73% | 13.4% | 18.8 µM | 11.67% | 1.74% | 23.5% | 13% | 32.4% | 29.1% | 29.1% | inhibition in vivo at 25 mg/kg (A549 [14]): 46.8%; viability at 1 µM (SMMC-7721 [16]): 86.5%; Activity (SMMC-7721 [17]): 75.86%; Activity (SMMC-7721 [18]): 76.9%; Activity (SMMC-7721 [20]): 18.21%; Activity (SMMC-7721 [21]): 1.55%; IC50 (SMMC-7721 [23]): > 32 µM; Activity (SMMC-7721 [24]): 5.37%; Activity (SMMC-7721 [25]): 10.2%; viability at 4 µM (SMMC-7721 [28]): 65.7%; viability at 0.25 µM (SMMC-7721 [29]): 88.4%; Activity (SMMC-7721 [30]): 17.41%; Activity (SMMC-7721 [31]): 4.99%; Activity (SMMC-7721 [33]): 15.37%; Activity (SMMC-7721 [34]): 4.7%
COc1ccc2c(=O)n(CC/C=C/[S+](C)[O-])c(SCc3ccc(C(=O)Nc4ccccc4N)cc3)nc2c1 (centres undefined) | 35.8% | 36.9% |  | 67.2% |  | 88% |  |  |  |  |  | 34.4% | 2.69 µM |  |  | 6.9% | 59% | 74.1% | 57.2% | 56.3% | IC50 (A-375 [35]): 2.82 µM; IC50 (A549 [36]): 6.62 µM; IC50 (HCT-116 [37]): 1.59 µM
Nc1ccccc1NC(=O)c1ccc(CNC(=O)OCc2cccnc2)cc1 [ENTINOSTAT] | 42.4% | 20% | 9.39% | 83.1% | 5.64% | 72.3% | 2.42 µM | 27.9% | 14.35% | 71.44% | 15.43% | 30.2% | 2.36 µM | 14.21% | 2.5% | 28.2% | 67.3% | 89.8% | 48.7% | 47.3% | IC50 (A549 [36]): 7.15 µM; viability at 1 µM (SMMC-7721 [16]): 81.5%; Activity (SMMC-7721 [17]): 76.1%; Activity (SMMC-7721 [18]): 75.1%; Activity (SMMC-7721 [20]): 14.35%; Activity (SMMC-7721 [21]): 1.18%; Activity (SMMC-7721 [24]): 3.31%; Activity (SMMC-7721 [25]): 12.5%; viability at 4 µM (SMMC-7721 [28]): 53.9%; viability at 0.25 µM (SMMC-7721 [29]): 91.4%; Activity (SMMC-7721 [30]): 9.55%; Activity (SMMC-7721 [31]): 6.66%; Activity (SMMC-7721 [33]): 9.47%; Activity (SMMC-7721 [34]): 4.13%
Nc1ccc(F)cc1NC(=O)c1ccc(CNC(=O)/C=C/c2cccnc2)cc1 | 13.4% | 8% | 7.88% | 63.6% | 4.08% | 87.4% | 2.37 µM | 19.1% | 10.4% | 76.78% | 8.76% | 27.6% | 12.6 µM | 13.53% | 2.34% | 42.1% | 61.1% | 52% | 58.9% | 25.5% | IC50 (Histone deacetylase 2): 0.31 µM; IC50 (A-375 [35]): 4.21 µM; viability at 1 µM (SMMC-7721 [16]): 84.7%; Activity (SMMC-7721 [17]): 76.44%; Activity (SMMC-7721 [18]): 77.96%; Activity (SMMC-7721 [20]): 9.69%; Activity (SMMC-7721 [21]): 1.77%; IC50 (SMMC-7721 [23]): > 26 µM; Activity (SMMC-7721 [24]): 3.88%; Activity (SMMC-7721 [25]): 15.2%; viability at 4 µM (SMMC-7721 [28]): 61.6%; viability at 0.25 µM (SMMC-7721 [29]): 88.6%; Activity (SMMC-7721 [30]): 13.16%; Activity (SMMC-7721 [31]): 5.09%; Activity (SMMC-7721 [33]): 13.28%; Activity (SMMC-7721 [34]): 5.74%

Reference: ChEMBL document CHEMBL4393680, “Design, synthesis and biological evaluation of novel thioquinazolinone-based 2-aminobenzamide derivatives as potent histone deacetylase (HDAC) inhibitors” (Eur J Med Chem, 2019)
